Measurements as given in patent publication US8506950B2, “Degradable microcapsules” (ETH Zurich, priority 2008, dated 2013).

What was measured:
[1] = molecular target: T1, rat luteinizing hormone receptor (rLHR) (Rattus norvegicus, UniProt P16235); test: Intracellular cAMP in HEK293T cells transiently expressing rLHR, induced by bLH; type: cell-based; conditions: 500 ng/ml bLH, 1 h post-induction, rLHR expressed, vs non-induced cells
T1 construct: Full-length cDNAs encoding the LHRs of rat (r) and bovine (b) origin; expressed in transfected cells; host or cells: HEK293T, transient transfection with pLEN-rLHR
Procedure: HEK293T cells were transiently transfected for constitutive bLHR or rLHR expression. 48 hours post-transfection the cells were induced by the addition of 500 ng/ml bLH. The intracellular cAMP-levels were determined 1 h post-induction. […] (□) no bLH, (▪) 500 ng/mL bLH.
Full-length cDNAs encoding the LHRs of rat (r) and bovine (b) origin were cloned under control of the strong constitutive human cytomegalovirus promoter (PCMV) as previously described [Kawate N, Tamada H, Inaba T, Sawada T, Journal of Reproduction and Development 2002; 48:8; Ulaner G A, Chuang J, Lin W, Woodbury D, Myers R V, Moyle W R, J Endocrinol 1999; 163:289-97]. The expression vectors were transiently transfected into HEK293T cells. The functionality of the expressed LHRs was determined 48 hours post-transfection by assaying the intracellular cAMP increase in response to the presence of bLH (FIG. 7). […] However, when the rLHR was expressed the detected cAMP-level increased to 29-fold level of the non-induced cells. […]
The intracellular cAMP production of cells was quantified using the cAMP Fluorescence Polarization (FP) Biotrak Immunoassay System (GE Healthcare Bio-Sciences GmbH, Otelfingen, Switzerland, Cat No. RPN3595) according to the manufacturer's protocol. The expression of firefly luciferase was determined with the Tropix Luciferase Assay Kit (Applied Biosystems, Bedford, USA, Cat No. BC100L). […]

rLHR = rLHR (Rattus norvegicus, UniProt P16235); test: Cellulase activity assay of supernatants of CK04 cells transfected with pCK71; type: cell-based; design: Full-length cDNAs encoding the LHRs of rat (r) and bovine (b) origin; expressed in transfected cells; host or cells: CK04: HEK293T stably cotransfected with pLEN-rLHR and pZeoSV2(+), clone 6; conditions: CK04 + pCK71, supernatants 48 h post-induction
Procedure: Cellulase activity assay performed from cell culture supernatants 48 h post-induction.
A novel bLH-responsive microcapsule degradation system was established by placing an engineered secreted version of the lytic enzyme endo-1.4-beta-glucanase gene (cellulase) under control of PCRE. […] The protein had the estimated size of 57 kDa. Additionally, the functionality of the pCK71-encoded cellulase was evaluated by performing a cellulase activity assay (FIG. 12).
Cellulase was quantified using EnzCheck® fluorescent substrate (Molecular Probes, Eugene, Oreg., USA) according to the manufacturer's protocol: 20 μl of cell culture supernatant was centrifuged at 16,000×g for one minute to remove cell debris and 15 μl of appropriate dilutions in PBS (Invitrogen, cat. no. 21600-069) were transferred to a 384-well plate containing 15 μl sodium acetate buffer (200 mM sodium acetate, pH 5.5) per well supplemented with 3 μl substrate solution. Plates were incubated at 37° C. for 30 minutes and fluorescence intensity was measured subsequently at 340 nm (excitation wavelength) and 450 nm (emission wavelength) in a Genios Pro multiwell plate reader (Tecan A G, Maennedorf, Switzerland). Absolute cellulase levels were determined by comparing the fluorescence intensities to readings of standardized solutions containing known concentrations of Aspergillus niger cellulase (Sigma, cat. no. 22178). […]

T1 sequence (P16235 27-700): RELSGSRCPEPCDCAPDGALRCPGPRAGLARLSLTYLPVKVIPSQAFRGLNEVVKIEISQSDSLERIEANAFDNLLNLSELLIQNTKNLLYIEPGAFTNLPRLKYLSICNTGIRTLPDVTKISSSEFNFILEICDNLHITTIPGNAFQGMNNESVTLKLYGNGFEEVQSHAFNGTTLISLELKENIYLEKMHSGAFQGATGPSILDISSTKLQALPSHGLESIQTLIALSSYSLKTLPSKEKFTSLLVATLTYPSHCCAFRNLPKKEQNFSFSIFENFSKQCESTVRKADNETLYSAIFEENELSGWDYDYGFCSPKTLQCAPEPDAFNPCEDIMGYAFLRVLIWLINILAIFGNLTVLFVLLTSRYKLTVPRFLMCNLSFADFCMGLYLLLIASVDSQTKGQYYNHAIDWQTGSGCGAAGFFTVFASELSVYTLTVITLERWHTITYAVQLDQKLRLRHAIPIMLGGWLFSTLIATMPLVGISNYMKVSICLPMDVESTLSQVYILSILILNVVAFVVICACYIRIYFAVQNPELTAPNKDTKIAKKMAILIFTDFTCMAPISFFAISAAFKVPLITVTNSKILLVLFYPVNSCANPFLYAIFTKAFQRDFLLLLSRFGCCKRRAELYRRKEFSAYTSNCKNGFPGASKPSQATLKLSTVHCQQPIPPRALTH
Chain of rLHR (P16235 27-700): as above

bovine luteinizing hormone [bLH]
increase in intracellular cAMP [1]: 29 fold | bLH-dependent increase in cellulase activity (rLHR): 8.4±0.2 fold
